Laboratory results from article PMC4774911, “Biochemical Screening of Five Protein Kinases from Plasmodium falciparum against 14,000 Cell-Active Compounds” (PLoS ONE, 2016).
pKd: −log10 of the molar value. “And” between values parts separate entries of the source, which are not always exact repeats. Equal entries are not always repeated.

Key:
Assay in all cases: biochemical
Parameters in all cases: endogenous in cells; host or cells: K562 cell extract; species or system K562 (extract); replicate k of n = 2 (each experiment ID is one independent experiment; two experiment IDs per compound)
Details in all cases: read-out: KDapp
CDK2 = CDK2 (Homo sapiens, UniProt P24941)
MAP3K1 = MAP3K1 (Homo sapiens, UniProt Q13233)
OXSR1 = OXSR1 (Homo sapiens, UniProt O95747)
TP53RK = target: T1, TP53RK (Homo sapiens, UniProt Q96S44)
T1 sequence (Q96S44 1-253): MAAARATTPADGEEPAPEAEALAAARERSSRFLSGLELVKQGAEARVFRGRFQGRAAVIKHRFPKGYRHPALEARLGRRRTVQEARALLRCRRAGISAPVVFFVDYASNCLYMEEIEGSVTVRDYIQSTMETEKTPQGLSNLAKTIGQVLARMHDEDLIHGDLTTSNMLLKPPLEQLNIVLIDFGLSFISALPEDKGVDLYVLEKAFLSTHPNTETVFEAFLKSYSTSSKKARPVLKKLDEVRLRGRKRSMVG

ULK1 = target: T2, ULK1 (Homo sapiens, UniProt O75385)
T2 sequence (O75385 1-1050): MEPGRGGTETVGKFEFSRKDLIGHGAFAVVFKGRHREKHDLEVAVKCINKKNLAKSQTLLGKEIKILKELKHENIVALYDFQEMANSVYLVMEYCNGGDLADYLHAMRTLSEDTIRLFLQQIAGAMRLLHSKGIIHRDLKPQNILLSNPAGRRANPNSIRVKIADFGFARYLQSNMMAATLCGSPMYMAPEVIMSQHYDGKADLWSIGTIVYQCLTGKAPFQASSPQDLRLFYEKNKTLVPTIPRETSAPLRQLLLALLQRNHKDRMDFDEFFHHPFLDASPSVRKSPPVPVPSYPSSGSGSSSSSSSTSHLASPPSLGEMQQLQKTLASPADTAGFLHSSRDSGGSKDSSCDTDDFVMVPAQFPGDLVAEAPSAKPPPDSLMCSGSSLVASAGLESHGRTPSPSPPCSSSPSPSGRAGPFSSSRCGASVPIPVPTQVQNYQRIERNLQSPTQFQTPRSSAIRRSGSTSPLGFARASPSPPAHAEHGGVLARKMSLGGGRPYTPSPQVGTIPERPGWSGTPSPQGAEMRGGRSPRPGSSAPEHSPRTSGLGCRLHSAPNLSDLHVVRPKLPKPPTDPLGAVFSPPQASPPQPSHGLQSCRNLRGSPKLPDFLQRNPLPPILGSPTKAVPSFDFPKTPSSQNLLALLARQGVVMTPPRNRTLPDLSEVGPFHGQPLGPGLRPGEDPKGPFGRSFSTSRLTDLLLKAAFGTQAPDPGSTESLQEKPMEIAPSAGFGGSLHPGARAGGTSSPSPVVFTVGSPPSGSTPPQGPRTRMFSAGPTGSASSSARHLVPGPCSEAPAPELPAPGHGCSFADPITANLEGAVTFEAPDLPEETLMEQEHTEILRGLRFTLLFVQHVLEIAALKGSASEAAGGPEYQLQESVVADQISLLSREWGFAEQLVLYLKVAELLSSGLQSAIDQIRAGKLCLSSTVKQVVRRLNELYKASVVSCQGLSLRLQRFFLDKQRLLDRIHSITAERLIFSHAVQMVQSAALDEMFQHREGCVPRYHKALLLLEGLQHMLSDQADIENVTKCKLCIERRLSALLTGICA

CSNK2A2 = CSNK2A2 (Homo sapiens, UniProt P19784)
Sequence of CSNK2A2 (P19784 whole entry): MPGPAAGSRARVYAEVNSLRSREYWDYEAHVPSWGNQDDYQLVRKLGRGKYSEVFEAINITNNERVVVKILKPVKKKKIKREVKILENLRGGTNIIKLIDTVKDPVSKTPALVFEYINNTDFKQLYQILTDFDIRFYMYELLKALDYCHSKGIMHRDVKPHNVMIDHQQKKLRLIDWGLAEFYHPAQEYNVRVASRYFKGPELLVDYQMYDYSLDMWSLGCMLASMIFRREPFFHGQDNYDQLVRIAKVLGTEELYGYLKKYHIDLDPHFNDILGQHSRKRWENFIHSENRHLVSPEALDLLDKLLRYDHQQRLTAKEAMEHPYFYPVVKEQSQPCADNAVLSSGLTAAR

Sequence of OXSR1 (O95747 whole entry): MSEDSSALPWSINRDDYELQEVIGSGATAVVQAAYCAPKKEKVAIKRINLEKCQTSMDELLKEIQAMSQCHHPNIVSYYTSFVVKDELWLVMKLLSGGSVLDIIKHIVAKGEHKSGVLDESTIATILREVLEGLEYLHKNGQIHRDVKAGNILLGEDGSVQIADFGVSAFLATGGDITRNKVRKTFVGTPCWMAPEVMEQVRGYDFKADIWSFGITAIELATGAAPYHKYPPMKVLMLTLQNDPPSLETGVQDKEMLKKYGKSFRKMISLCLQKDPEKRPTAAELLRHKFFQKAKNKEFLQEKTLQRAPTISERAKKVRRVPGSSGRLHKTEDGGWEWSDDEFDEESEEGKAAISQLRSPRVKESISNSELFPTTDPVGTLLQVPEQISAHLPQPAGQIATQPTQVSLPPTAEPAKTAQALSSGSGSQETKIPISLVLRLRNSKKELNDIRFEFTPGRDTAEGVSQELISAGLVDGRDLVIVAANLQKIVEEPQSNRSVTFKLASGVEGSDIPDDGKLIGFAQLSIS
Sequence of MAP3K1 (Q13233 whole entry): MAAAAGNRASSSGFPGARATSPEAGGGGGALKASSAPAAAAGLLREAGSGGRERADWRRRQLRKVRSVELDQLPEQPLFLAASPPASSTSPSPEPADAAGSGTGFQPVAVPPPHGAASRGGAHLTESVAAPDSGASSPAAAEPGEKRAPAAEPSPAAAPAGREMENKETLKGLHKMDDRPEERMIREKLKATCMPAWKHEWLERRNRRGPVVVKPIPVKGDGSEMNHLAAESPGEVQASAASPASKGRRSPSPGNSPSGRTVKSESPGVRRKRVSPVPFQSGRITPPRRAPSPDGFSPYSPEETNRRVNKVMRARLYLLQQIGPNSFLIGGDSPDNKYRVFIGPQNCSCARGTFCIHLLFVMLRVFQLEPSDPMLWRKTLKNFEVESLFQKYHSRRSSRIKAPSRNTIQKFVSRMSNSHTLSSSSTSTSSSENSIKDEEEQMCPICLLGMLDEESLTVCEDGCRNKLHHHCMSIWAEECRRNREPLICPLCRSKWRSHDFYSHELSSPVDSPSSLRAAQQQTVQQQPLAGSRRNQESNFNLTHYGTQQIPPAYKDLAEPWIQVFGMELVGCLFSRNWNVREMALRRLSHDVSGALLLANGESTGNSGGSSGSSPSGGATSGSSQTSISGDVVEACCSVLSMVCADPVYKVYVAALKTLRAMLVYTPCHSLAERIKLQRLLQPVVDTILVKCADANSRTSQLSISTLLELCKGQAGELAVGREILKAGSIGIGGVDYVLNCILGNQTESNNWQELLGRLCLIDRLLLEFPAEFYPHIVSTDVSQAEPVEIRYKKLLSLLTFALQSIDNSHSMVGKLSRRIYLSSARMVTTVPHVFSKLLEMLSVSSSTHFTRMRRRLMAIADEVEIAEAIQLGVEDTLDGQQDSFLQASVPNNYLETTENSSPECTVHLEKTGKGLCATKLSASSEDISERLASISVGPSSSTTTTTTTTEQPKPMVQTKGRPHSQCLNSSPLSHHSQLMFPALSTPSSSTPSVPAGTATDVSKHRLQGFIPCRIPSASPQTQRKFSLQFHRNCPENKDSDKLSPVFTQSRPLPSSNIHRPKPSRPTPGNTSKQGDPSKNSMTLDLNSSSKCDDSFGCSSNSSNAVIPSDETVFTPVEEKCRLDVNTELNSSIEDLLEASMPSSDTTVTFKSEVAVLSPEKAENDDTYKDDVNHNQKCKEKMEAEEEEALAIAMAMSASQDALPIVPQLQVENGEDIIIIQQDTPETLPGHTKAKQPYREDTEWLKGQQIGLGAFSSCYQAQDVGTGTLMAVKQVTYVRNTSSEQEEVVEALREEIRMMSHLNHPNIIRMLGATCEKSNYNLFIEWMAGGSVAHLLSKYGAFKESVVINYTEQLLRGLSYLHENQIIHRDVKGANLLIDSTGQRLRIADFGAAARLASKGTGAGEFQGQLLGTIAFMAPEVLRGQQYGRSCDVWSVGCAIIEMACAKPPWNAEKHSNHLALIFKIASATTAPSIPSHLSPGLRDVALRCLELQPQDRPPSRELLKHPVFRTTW

SMILES | pKd (CDK2) | pKd (MAP3K1) | pKd (OXSR1) | pKd (TP53RK) | pKd (ULK1) | pKd (CSNK2A2)
CN1CCN(c2ccc(Nc3ncc(C#N)c(Nc4ccccc4C(N)=O)n3)cc2)CC1.Cl [TCMDC-134116] | 6.87 and 6.88 | 6.17 | 7.14 and 6.93 | 5.42 | 7.02 | –
CN(C)CC(O)COc1ccc(Nc2ncc([N+](=O)[O-])c(Nc3ccccc3O)n2)cc1.O=C(O)C(F)(F)F (stereo not drawn) [TCMDC-141399] | – | – | – | – | – | 7.48 and 7.57
